Experimental data published in patent US6852328B1, “Method and device for protection of wooden objects proximate soil from pest invasion” (priority 1989, dated 2005).

Tests used:
Format in all cases: physicochemical
[1] = Release rate and longevity of high density polyethylene sheets as a function of thickness and temperature (Example 2); details: 10 wt % pesticide, 10 wt % carrier; for Longevity @ 23° C. / Longevity @ 35° C.: 80 wt % HDPE; for Release Rate @ 23° C.: sheet, 80 wt % high density polyethylene (MA 778000), 60 mil
Description: Controlled release devices in the form of sheets are made having 10% wt % pesticide, 10 wt % carrier and 80 wt % high density polyethylene (MA 778000).

[2] = Release rate and longevity of encapsulated two-part construction (Example 3); details: two-part device about 100 g, inner part 60 wt % pesticide, 40 wt % carrier, outer part HDPE 120 mil
Description: A device having an inner part surrounded by or encapsulated by an outer part is constructed having an overall mass of about 100 g. The inner part contains 60 wt % pesticide and 40 wt % carrier. The outer part is high density polyethylene of a thickness of 120 mil.

[3] = Release rate and longevity of pellet (Example 4); details: pellet about 100 g, about 150 cm^2, 70 wt % HDPE, 20 wt % pesticide, 10 wt % carrier
Description: A pellet is made having a mass of about 100 g and a surface area of about 150 cm^2. The polymer is 70 wt % high density polyethylene, with 20 wt % pesticide and 10 wt % carrier. Comparing Table 4 to Table 3, it is evident that the encapsulated two-part construction provides longer life than the pellet.

[4] = Release rates of pesticide/polymer combinations, one inch squares cut from 1/8 inch sheets (Example 1); details: 10% pesticide
Description: The following controlled release devices were made and tested to obtain their release rates (Table 1). The devices were made as follows. All devices, except for those employing S-113 urethane, were injection molded into a thin sheet about ⅛ inch thick. The device employing S-113 urethane was case, a method typically used for thermoset polymers. All thermoplastics were formulated using sufficient amount of carbon black to carry pesticides. All thermoplastic polymers were formulated with 10 percent pesticide, 3 or 7 percent carbon black to absorb liquid pesticide and 87 to 83 percent by weight of polymer. Specifically, devices made from thermoplastic polymers and deltamethrin and lambdacyhalothrin contained 3 percent of carbon black. The devices made from the remaining pesticides and thermoplastic polymers contained 7 percent of carbon black.
The devices made from S-113 urethane (a thermoset polymer) were made from a polymer mix containing 60% S-113, 40% castor oil, and 5% of TIPA catalyst by weight. The polymer mix comprised 90% of the total weight of the device. The pesticide, deltamethrin, comprised the remaining 10% of the device. No carbon black was used in this device. The polymer/pesticide mixture was cast, using a spin caster into a ⅛ inch thick sheet and heated at about 60° C. for about 40 to 60 minutes to cure the cast sheet.
One inch squares were then cut from the thin sheets that were injection molded or cast, and the squares were tested for release rates as shown in Table 1.

[5] = polymer Polyethylene MA78000, injection molded 1/8 inch sheet, 3 or 7% carbon black
[6] = polymer EVA 763, injection molded 1/8 inch sheet, 3 or 7% carbon black
[7] = polymer polyurethane 2200, injection molded 1/8 inch sheet, 3 or 7% carbon black
[8] = polymer polyurethane 3100, injection molded 1/8 inch sheet, 3 or 7% carbon black

SMILES	Longevity @ 23° C. ([1]; sheet thickness 60 mil) [years]	Longevity @ 35° C. ([1]; sheet thickness 60 mil) [years]	Longevity @ 23° C. ([1]; sheet thickness 120 mil) [years]	Longevity @ 35° C. ([1]; sheet thickness 120 mil) [years]	Longevity @ 23° C. ([1]; sheet thickness 240 mil) [years]	Longevity @ 35° C. ([1]; sheet thickness 240 mil) [years]	Release Rate @ 23° C. [1] [μg/cm^2/day]	Longevity @ 23° C. [2] [years]	Release Rate @ 23° C. [2] [μg/cm^2/day]	Longevity @ 35° C. [2] [years]	Longevity @ 23° C. [3] [years]	Release Rate @ 23° C. [3] [μg/cm^2/day]	Longevity @ 35° C. [3] [years]	Release Rate [4, 5] [μg/cm2/day]	Release Rate [4, 6] [μg/cm2/day]	Release Rate [4, 7] [μg/cm2/day]	Release Rate [4, 8] [μg/cm2/day]	further results
c1ccc(-c2ccccc2)cc1 [Biphenyl]	2.5	2.1	5.1	4.4	11.2	9.1	3.5	31	35	23	22	16	11	–	–	–	–	–
Oc1ccc(Cl)cc1Cc1cc(Cl)ccc1O [Dichlorophen]	1.6	1.4	3.3	3.0	6.8	6.4	6.2	56	24	28	33	11	16	6.2	–	–	–	–
CC1(C)[C@H](C(=O)O[C@H](C#N)c2cccc(Oc3ccccc3)c2)[C@@H]1/C=C(\Cl)C(F)(F)F [Lambdacyhalothrin]	–	–	–	–	–	–	–	–	–	–	–	–	–	5.2	20.6	2.0	0.7	–
CCOP(=S)(OCC)Oc1cc(C)nc(C(C)C)n1 [Diazinon]	1.1	0.6	2.3	1.3	4.8	2.7	11.7	39	28	24	8.1	45	5.1	–	–	–	–	–
CC1(C)C(C=C(Cl)Cl)C1C(=O)OCc1cccc(Oc2ccccc2)c1 (stereo not drawn) [Permethrin]	8.6	3.2	17	6.5	35	13	1.5	68	16	38	30	12	14	4.0	28.5	1.3	1.4	–
CC1(C)[C@H](C(=O)O[C@H](C#N)c2cccc(Oc3ccccc3)c2)[C@@H]1C=C(Br)Br [Deltamethrin]	–	–	–	–	–	–	–	–	–	–	–	–	–	–	–	–	–	Release Rate ([4]; polymer Alipmtic PS-49-100, injection molded 1/8 inch sheet, 3% carbon black): 7.2 μg/cm2/day; Release Rate ([4]; polymer Aromatic 80A, injection molded 1/8 inch sheet, 3% carbon black): 16.8 μg/cm2/day; Release Rate ([4]; polymer S-113 urethane (thermoset), cast 1/8 inch sheet, no carbon black): 25.2 μg/cm2/day; Release Rate ([4]; polymer pellethane 2102-55D, injection molded 1/8 inch sheet, 3% carbon black): 8.0 μg/cm2/day; Release Rate ([4]; polymer pellethane 2102-80A, injection molded 1/8 inch sheet, 3% carbon black): 8.8 μg/cm2/day
CC1(C)C(C=C(Cl)Cl)C1C(=O)OC(C#N)c1cccc(Oc2ccccc2)c1 (stereo not drawn) [Cypermethrin]	–	–	–	–	–	–	–	–	–	–	–	–	–	4.6	27.3	0.7	0.4	–
Cc1c(F)c(F)c(COC(=O)[C@@H]2[C@H](/C=C(\Cl)C(F)(F)F)C2(C)C)c(F)c1F (racemic) [Tefluthrin]	9.1	3.1	18.2	5.9	39	10.4	1.3	35	31	18	33	11	16	27.0	40.4	25.0	6.4	–
